Assay results from a melting point compilation (Tetko et al.; mined from patent text by program, amines drawn as free bases though some values may be those of a salt).

First: OC1CCCCCC1n1cncn1 (stereo not drawn)
Second: CN(C(=O)CCCOc1ccc2nc3n(c(=O)c2c1)CS(=O)(=O)N3)C1CCCCC1
The melting point of the first is lower: 85 to 86 °C for the first, over 330 °C for the second.

Compared with CC(C)c1ccccc1-n1c(=O)[nH]c2c(C(N)=O)nc(-c3cccc(O)c3)nc21, Cc1cc(-c2csc(-c3cccc(C(=O)O)c3)n2)c(C)s1 is lower in melting point: 322 to 324 °C for the first, 155 to 156 °C for the second.

First: CC(O)(CN)c1ccc(Oc2ccc3c(c2)S(=O)(=O)NC2CCCN32)cc1 (stereo not drawn)
Second: Cc1nc(Oc2ccc(F)cc2)cc(Oc2ccc(F)cc2)n1
The melting point of the first is lower: 76 to 78 °C for the first, 93 to 97 °C for the second.

Compared with Nc1nc(N)c2ncn(C3OC(CO)C(O)C3O)c2n1 (stereo not drawn), CC(C)(Cn1cnc2c(N)nc3ccccc3c21)OCCS(C)(=O)=O is higher in melting point: 238 to 240 °C for the first, 261 to 264 °C for the second.

Compared with CC(C)(C)OC(=O)COc1ccc2c3c(ccc2c1)OC(=O)CC3, O=C1CCc2ccc(O)cc2O1 is higher in melting point: 95 to 96 °C for the first, 133 to 136 °C for the second.

First: N#Cc1cc(C(F)(F)F)[nH]c1-c1sc(Cl)c(Cl)c1Cl
Second: FC(F)(F)c1n[nH]c(Cl)c1Cl
The melting point of the first is higher: 220 to 221 °C for the first, 58 to 60 °C for the second.

First: CC(CSCCSCCSCC(C)C(=O)Nc1ccc(Nc2ccccc2)cc1)C(=O)Nc1ccc(Nc2ccccc2)cc1 (stereo not drawn)
Second: COC(=O)C(=O)c1ccc(OCCOc2ccc(-c3ccccc3)cc2)cc1
The melting point of the first is lower: 131 to 134 °C for the first, 143 to 145 °C for the second.

First: O=C(O)CCCc1nc(NCc2ccc3c(c2)OCO3)c2cc(Cl)sc2n1
Second: CCCCc1ccc(-c2cc(C(=O)O)cc(-c3ccc(Cl)cc3)n2)cc1
The melting point of the first is lower: 112 °C for the first, 209 to 210 °C for the second.

First: O=C(O)Cc1ccc(OCCNC(=O)C2Cc3ccccc3N2S(=O)(=O)c2ccc(-c3ccc(F)cc3F)cc2)cc1 (stereo not drawn)
Second: CCOC(Cc1ccc(OCCN2c3ccccc3Sc3ccccc32)cc1)C(=O)O (stereo not drawn)
The melting point of the first is lower: 92 to 99 °C for the first, 106 to 113 °C for the second.

First: NC1CSC(c2cccs2)CNC1=O (stereo not drawn)
Second: O=C1CCCC2=C1C(c1ccc(Br)s1)C1=C(CCS1)N2 (stereo not drawn)
The melting point of the first is lower: 157 °C for the first, over 250 °C for the second.

Compared with CC(C)(C)c1cc(CN(c2cccnc2)S(C)(=O)=O)cc(C(C)(C)C)c1O, CC(C)(C)c1cc(-c2nn(CC#N)c3ncccc23)cc(C(C)(C)C)c1O is higher in melting point: 133 to 134 °C for the first, 141 to 143 °C for the second.

First: Cn1cc(-c2ccccc2)c(=O)c(-c2ccccc2F)c1
Second: CN(C)C=C1CN=C(c2ccccc2)c2ccccc2C1=O
The melting point of the first is higher: 165 °C for the first, 131 to 133 °C for the second.

First: C#CCSC1NN=C(c2ccncc2)N1c1ccccc1 (stereo not drawn)
Second: Cc1ccccc1C(=O)Cc1ccncc1
The melting point of the first is higher: 151 to 152 °C for the first, 118 to 119 °C for the second.

First: Oc1cccc2c1CCC=C2
Second: CC(=O)N[C@H]1CCCc2ccccc21
The melting point of the first is lower: 67 to 68 °C for the first, 153 to 155 °C for the second.

First: CCOC(=O)c1cnc2c([N+](=O)[O-])cccc2c1N(C)C
Second: CCOC(=O)c1c(C)ncn1-c1ccc(Cl)c(Cl)c1
The melting point of the first is lower: 76 to 77 °C for the first, 135 to 136 °C for the second.

Compared with Oc1cc(-c2ccccc2)nc2nn(-c3ccccc3)cc12, CCOC(C)n1c(C)nc(-c2ccccc2)c1-c1ccccc1 (stereo not drawn) is lower in melting point: 280 to 281 °C for the first, 87 to 89 °C for the second.

First: CCCC(c1ccc(C(N)=O)cc1)n1ccnc1 (stereo not drawn)
Second: Oc1ccc(CCCn2ccnc2)cc1
The melting point of the first is lower: 132 °C for the first, 158 to 160 °C for the second.

Compared with O=C(O)C=C1CC(C(=O)OCc2ccccc2)Nc2cc(Cl)cc(Cl)c21 (racemic), O=C(c1nc2ccc(O)cc2[nH]1)N1CCC(Cc2ccccc2)CC1 is lower in melting point: 210 to 212 °C for the first, 186 °C for the second.

Compared with CC(=O)NNC(COCc1cc(C)cc(C)c1)C1c2ccccc2CCc2ccccc21 (stereo not drawn), CN(Cc1ccccc1)C(Cc1ccccc1)C(=O)O (stereo not drawn) is higher in melting point: 109 to 111 °C for the first, 214 to 215 °C for the second.

Compared with Cc1nc2ccc(NS(=O)(=O)c3cccc(Cl)c3C)cc2nc1C, CCN(COC)c1cc(-c2ccnc(Nc3cccc(Cl)c3)n2)ccn1 is lower in melting point: 225 to 226 °C for the first, 114 to 115 °C for the second.

First: COc1c(OCC(F)(F)C(F)(F)F)ccnc1CSc1nc2ccccc2[nH]1
Second: C1=CCC2=c3cnc4ccccc4c3=NC2=C1
The melting point of the first is lower: 116 to 117 °C for the first, 146 to 148 °C for the second.

Compared with CCCNC1=NC(c2cccc(-c3cncnc3)c2)(c2ccc(OCCC)c(C)c2)C(=O)N1C (stereo not drawn), CCNCCCOc1ccc(-c2ccc(C(=O)OCC)cc2)cc1-c1ccc2c(c1)C(C)(C)CCC2(C)C is higher in melting point: 64 to 66 °C for the first, 148 °C for the second.

First: COC(=O)C1=C(C)NC2=C(C(=O)OC2)C1c1cccc(Br)c1 (stereo not drawn)
Second: CN1C(=O)C(C(=O)Nc2ccc(Cl)cc2Oc2c(Cl)cccc2Cl)C(=O)N(C)C1=S
The melting point of the first is lower: 229 to 231 °C for the first, 254 to 257 °C for the second.

First: Cc1cc2ncnn2nc1OCCOCCN1CCN(C(c2ccccc2)c2ccccc2)CC1
Second: COc1cc(C(C)=O)ccc1OCCCN1CCC(=C(c2ccc(Cl)cc2)c2ccc(Cl)cc2)CC1
The melting point of the first is lower: 71 to 72 °C for the first, 143 to 144 °C for the second.

First: O=C(NCC(F)(F)F)c1ccc(C2=NOC(c3cc(Cl)cc(Cl)c3)(C(F)(F)F)C2)cc1 (stereo not drawn)
Second: NS(=O)(=O)c1cccc(NC(=O)c2cnn3c(C(F)F)cc(-c4ccc(OC(F)(F)F)cc4)nc23)c1
The melting point of the first is lower: 94 to 96 °C for the first, 231 °C for the second.

First: O=[N+]([O-])c1ccccc1Cc1n[nH]c(O)n1
Second: Cc1ccc([N+](=O)[O-])c(=O)[nH]1
The melting point of the first is lower: 210 to 212 °C for the first, 222 to 223 °C for the second.

First: Fc1ccc(Cn2ccc3cc(Br)ccc32)cc1
Second: CC(C)(Cc1c(Sc2ccccc2)c2cc(F)ccc2n1Cc1ccc(Cl)cc1)C(=O)O
The melting point of the first is lower: 57 to 58 °C for the first, 162 to 163 °C for the second.

Compared with O=[N+]([O-])C1(F)C=C(OCC2CCCSC2)C(Cl)=CC1 (stereo not drawn), O=[N+]([O-])c1ccc2c(c1)COCC2 is lower in melting point: 100 to 103 °C for the first, 96 to 98 °C for the second.

First: OCC1CCc2ncsc2C1 (stereo not drawn)
Second: Cc1scc2c1N(C(=O)NCCN1CCC(CCCC3CCCN3C)CC1)c1ccccc1NC2=O (stereo not drawn)
The melting point of the first is higher: 176 to 182 °C for the first, 145 to 146 °C for the second.

First: CCCCCCCCCCCCc1ccc2cccnc2c1O
Second: CCCCCN1C(=O)C(=O)c2cc(SCCCc3ccc(C(=O)O)cc3)ccc21
The melting point of the first is lower: 88.5 to 90 °C for the first, 145 to 146 °C for the second.

Compared with CCOc1cc(C(CC(N)=O)N2Cc3ccccc3C2=O)ccc1OC (stereo not drawn), COc1ccc(C2=NN(C3Cc4ccccc4C3)C(=O)[C@H]3CC=CC[C@@H]23)cc1OC (relative stereo) is lower in melting point: 169 °C for the first, 163 to 164 °C for the second.

First: CCCc1c(OCCCOc2cccc(NC(=O)C(=O)O)c2C)ccc(C(C)=O)c1O
Second: CCOC(=O)c1cccc2c3c([nH]c12)CN(CC(=O)NC(C(=O)C(F)(F)F)C(C)C)C=C3 (stereo not drawn)
The melting point of the first is lower: 146 to 148 °C for the first, 218 to 219 °C for the second.

Compared with CCN(CC)CCCN1CCN(CCN2CCCCC2)C1=C(C#N)C#N, CCN1CCN(CCCOc2cc3ncc(C#N)c(Nc4ccc(Sc5nc(C)c(C)n5CC)c(Cl)c4)c3cc2OC)CC1 is higher in melting point: 58 to 61 °C for the first, 229 to 230 °C for the second.

COc1c(C(=O)c2ccc([N+](=O)[O-])cc2Cl)c(C)nn1C and COC(=O)c1ccc(-c2ccc(OC)c(OC)c2)cc1OC cannot be ordered by melting point: 97 to 98 °C for the first, 96 to 97.5 °C for the second.

First: CSC(C)(C)c1nnc(N)s1
Second: Cn1nc(C(C)(C)C)cc1O
The melting point of the first is higher: 195 to 197 °C for the first, 150 °C for the second.

First: CCOC(=O)c1csc(C)c1S(=O)(=O)NC(=O)n1nc(OC)n(C)c1=O
Second: CCOC(=O)c1ncn(S(=O)(=O)N(C)C)n1
The melting point of the first is higher: 176 °C for the first, 78.5 to 81.5 °C for the second.

First: CN(C)C(=O)COc1cccc(C(F)(F)F)c1
Second: COC(=S)c1ccc2ccc(C(=O)N(C)C)cc2c1
The melting point of the first is lower: 88.5 to 89.5 °C for the first, 123 to 124 °C for the second.

First: O=C1N(Cc2ccc3nsnc3c2)c2ccccc2C12COc1cc3c(cc12)OCCO3 (stereo not drawn)
Second: CC(Br)c1ccc2c(=O)c3ccccc3ccc2c1 (stereo not drawn)
The melting point of the first is higher: 189 to 191 °C for the first, 93 to 95 °C for the second.

First: COc1nc2ccccc2nc1NC(=O)N1CCN(c2ccccc2F)CC1
Second: Cc1ccc(C(=O)Nc2c(NC(=O)CN3CCN(c4ccccc4C#N)CC3)ccc3c2C(=O)c2ccccc2C3=O)cc1
The melting point of the first is lower: 142 to 144 °C for the first, 238 to 239 °C for the second.

First: COc1cc(OC)nc(Oc2cccc(Oc3nc(OC)cc(OC)n3)c2C=O)n1
Second: COc1cc(/C=C/c2ccc(N(C)C)cc2)cc(OC)c1OC
The melting point of the first is higher: 129 °C for the first, 114 to 115 °C for the second.

First: CC1CN(CC(C)C(O)c2ccc(C(C)(C)C)cc2)CC(C)O1 (stereo not drawn)
Second: Cc1nc(C(O)(Cn2cncn2)c2ccc(Cl)cc2)sc1C (stereo not drawn)
The melting point of the first is lower: 49 to 50 °C for the first, 174 °C for the second.

Compared with Cc1oc(-c2ccco2)nc1COc1ccc(COc2ncccc2CC(=O)O)cc1, Cc1ccc(C(=O)Nc2ccc(-n3ccnc3C)cc2C(F)(F)F)cc1Nc1nccc(-c2cccnc2)n1 is higher in melting point: 151 to 152 °C for the first, 154 to 163 °C for the second.

First: Cc1c(N2CCC(C3(N)CCC3)C2)c(F)cc2c(=O)c(C(=O)O)cn([C@@H]3C[C@@H]3F)c12 (stereo partly drawn)
Second: CC1(N)CN(c2c(F)cc3c(=O)c4c(=O)[nH]sc4n(C4CC4)c3c2F)C1
The melting point of the first is lower: 140 to 143 °C for the first, 294 to 300 °C for the second.

Compared with Cc1ccc(/C=C/C2=CCN(Cc3c[nH]c4ncccc34)CC2)cc1, Cc1ccc(C=O)n1Cc1ccc(Cl)cc1Cl is lower in melting point: 209 to 212 °C for the first, 86 to 87 °C for the second.

First: CCCc1cc(NC(=O)c2c(C)nn(C)c2C)c(C)cc1C(OC)(C(F)(F)F)C(F)(F)F
Second: CCOC(=O)c1c(N)c(C)nn1C
The melting point of the first is higher: 132 to 134 °C for the first, 55.5 to 56.5 °C for the second.

Compared with CCCOc1nc2ccsc2c(=O)n1CCC, CCCN1NCc2c(C3C(=O)Nc4ccc(F)cc43)ncnc21 (stereo not drawn) is higher in melting point: 42 to 45 °C for the first, 288 to 292 °C for the second.

First: Cc1cc(O)cc(C)c1-c1ccccc1
Second: O=c1[nH]c(=O)n2c(c1-c1ccccc1)SCCC2
The melting point of the first is lower: 128 to 130 °C for the first, over 300 °C for the second.

First: CC1(C)COC(=O)N1c1nc(-c2ccc(Cl)c(Cl)c2)cs1
Second: CC(Oc1ccc(Cl)cc1Cl)c1nnc(N=C=O)s1 (stereo not drawn)
The melting point of the first is lower: 134 to 137 °C for the first, 176 to 179 °C for the second.

First: COc1c(Cl)ccc(Cl)c1C(=O)NN
Second: CCOC(=O)C(=O)c1csc(NC(=S)NC(=O)c2ccccc2)n1
The melting point of the first is lower: 144 to 145 °C for the first, 155 to 157 °C for the second.

First: C#CCOc1ccccc1S(N)(=O)=O
Second: O=S1(=O)CCN(c2ccc(O)cc2)CC1
The melting point of the first is lower: 143 to 145 °C for the first, 153 to 155 °C for the second.

First: O=C(c1ccc(F)c(F)c1)N1CCC[C@H](c2nc(-c3ccccn3)no2)C1
Second: Oc1cc(-c2c(F)c(F)c(F)c(F)c2F)nn1-c1ccccc1
The melting point of the first is lower: 135 to 137 °C for the first, 149 to 151 °C for the second.

Work on N#Cc1nn(-c2c(Cl)cc(C(F)(F)F)cc2Cl)c(N)c1C1C=CCCCC1 (stereo not drawn) yielded a melting point of 158 to 159 °C.
